From ChEMBL document CHEMBL1201862, “PubChem BioAssay data set” (2004)
The source made the active and inactive calls.

What was measured:
Leucine aminopeptidase = molecular target: T1, Leucine aminopeptidase (Plasmodium falciparum 3D7, UniProt Q8IL11); assay: P. falciparum M17LAP inhibitors, primary screen, biochemical, fluorogenic H-Leu-NHMec substrate, 1536-well (AID 1619); type: functional
T1 sequence (Q8IL11 whole entry): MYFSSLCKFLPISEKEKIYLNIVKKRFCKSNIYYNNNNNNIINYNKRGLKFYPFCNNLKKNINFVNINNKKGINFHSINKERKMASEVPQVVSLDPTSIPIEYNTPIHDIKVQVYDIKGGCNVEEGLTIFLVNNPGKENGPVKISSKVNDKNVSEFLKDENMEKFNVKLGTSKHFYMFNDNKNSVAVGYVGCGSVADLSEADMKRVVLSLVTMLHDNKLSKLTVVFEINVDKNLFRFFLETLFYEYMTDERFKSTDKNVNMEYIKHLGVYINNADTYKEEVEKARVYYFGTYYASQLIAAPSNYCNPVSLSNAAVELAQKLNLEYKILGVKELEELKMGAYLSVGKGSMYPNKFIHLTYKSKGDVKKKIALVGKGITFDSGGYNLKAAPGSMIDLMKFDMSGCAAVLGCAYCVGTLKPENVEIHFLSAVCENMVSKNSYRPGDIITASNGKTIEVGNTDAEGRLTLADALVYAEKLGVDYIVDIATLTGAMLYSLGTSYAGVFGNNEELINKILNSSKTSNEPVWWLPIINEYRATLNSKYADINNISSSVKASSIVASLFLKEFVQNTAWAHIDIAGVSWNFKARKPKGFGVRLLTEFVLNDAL

[1] = luciferase reporter signal suppression in cells – H4 neuroglioma cells, luminescence, dose response (AID 1990); type: functional, cell-based
[2] = molecular target: Luciferin 4-monooxygenase (Photinus pyralis, UniProt P08659); assay: Counter Screen for Luciferase-based Assay Positives. [Related pubchem assays: 620, 618, 411 ]
[3] = molecular target: Glyceraldehyde-3-phosphate dehydrogenase (Homo sapiens, UniProt P04406)
[4] = Luminescence Cell-Based Dose Response HTS to Identify Inhibitors of 5'UTR Stem-Loop Driven Prion Protein mRNA Translation in H4 Neuroglioblastoma Cells. [Related pubchem assays: 1827 (Project Summary), 1813 (Primary HTS)]; type: functional
[5] = alpha-synuclein stem-loop luciferase translation blockers – H4 neuroglioma cells, luminescence, confirmation (AID 1988); type: functional, cell-based
HT-1080 = assay: HT1080 cell viability loss – fluorescence readout (AID 620); type: functional, cell-based; conditions: Homo sapiens
Cytochrome P450 2C19 = Cytochrome P450 2C19 (Homo sapiens, UniProt P33261); assay: Cytochrome panel assay with activity outcomes. Panel member name: p450-cyp2c19 Compounds with AC50 equal or less than 10 uM are considered active; type: functional; conditions: read-out: AC50
[6] = molecular target: Peroxisome proliferator-activated receptor gamma/Nuclear receptor coactivator 2 (Homo sapiens, UniProt P37231); type: functional;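 also: agonist potency for raising coactivator recruitment to the receptor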
[7] = molecular target: Peroxisome proliferator-activated receptor gamma/Nuclear receptor coactivator 1 (Homo sapiens, UniProt P37231); type: functional;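 also: agonist potency as compounds enhance coactivator SRC-1 recruitment to PPARgamma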
[8] = molecular target: Peroxisome proliferator-activated receptor gamma/Nuclear receptor coactivator 3 (Homo sapiens, UniProt P37231); type: functional;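 also: agonist potency for raising coactivator recruitment to the receptor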
[9] = NIH-3T3 fibroblast cytotoxicity, dose response, cytotoxicity control, cell-based, fluorescence, Alamar Blue, secondary assay (AID 2327); type: functional;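 also: NIH-3T3 mouse fibroblasts cultured with fluconazole at 8 µg/mL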
[10] = system: Streptococcus sp. 'group A'; assay: Streptococcus pyogenes SK(-)GAS viability under kanamycin – luminescence, BacTiterGlo, confirmation, counter-screen for streptokinase expression inhibitor project, dose response (AID 1900); type: functional, organism-based
BJ [11] = assay: BJ-TERT fibroblast viability loss – cell-based, RAS-independent, luminescence, dose response (AID 1933); type: functional; conditions: Homo sapiens
Streptokinase A = molecular target: T2, Streptokinase A (Streptococcus pyogenes serotype M1, UniProt P10520); assay: viability-normalized secreted streptokinase activity reduction – plasminogen activation absorbance, OD405, dose response (AID 1914); type: functional, Streptococcus pyogenes M1 GAS;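 also: secreted streptokinase activity via plasminogen activation per viability signal from cell pellet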
T2 sequence (P10520 whole entry): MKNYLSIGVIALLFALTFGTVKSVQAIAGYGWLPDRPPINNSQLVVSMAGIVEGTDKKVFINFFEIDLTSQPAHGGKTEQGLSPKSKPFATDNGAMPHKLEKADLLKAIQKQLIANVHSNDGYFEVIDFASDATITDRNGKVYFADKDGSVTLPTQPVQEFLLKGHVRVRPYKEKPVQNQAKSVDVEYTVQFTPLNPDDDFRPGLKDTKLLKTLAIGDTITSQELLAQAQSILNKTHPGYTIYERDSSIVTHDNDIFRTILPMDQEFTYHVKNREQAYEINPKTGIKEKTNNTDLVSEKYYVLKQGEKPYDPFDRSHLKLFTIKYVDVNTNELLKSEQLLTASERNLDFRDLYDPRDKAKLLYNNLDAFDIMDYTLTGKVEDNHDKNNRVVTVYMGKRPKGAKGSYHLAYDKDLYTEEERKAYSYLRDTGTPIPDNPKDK

BJ [12] = assay: cells; type: functional, cell-based; conditions: Homo sapiens
[13] = fluconazole-exposed Candida albicans growth modulators – fluorescence, retest, confirmation (AID 2467); type: functional, cell-based
[14] = Trypanosoma cruzi growth suppression in host cells – NIH3T3 host cells, beta-gal luminescence, confirmation (AID 2044); type: functional, cell-based;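 also: intracellular parasites grown in NIH/3T3 mouse fibroblasts as host cells; luminescent beta-galactosidase reporter signal from transgenic T. cruzi replicating inside host cells; inhibitors lower the luminescence signal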
[15] = microbe, parasite or virus in culture; type: functional; conditions: Mycobacterium tuberculosis
[16] = NIH3T3 cell viability loss – ATP luminescence, mouse fibroblasts, counter-screen, dose response (AID 2010); type: functional, cell-based;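 also: cells exposed to compound for about 90 hours before reading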
BJ [17] = assay: BJ-TERT-LT-ST fibroblast viability loss – cell-based, RAS-independent, luminescence, dose response (AID 1935); type: functional; conditions: Homo sapiens;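 also: BJ fibroblasts immortalized with TERT plus LT and ST oncogenes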
[18] = DRD fibroblast viability loss – cell-based, non-viral oncogenic, luminescence, dose response (AID 1934); type: functional; conditions: Homo sapiens
Streptococcus = assay: GAS UMAA2166 growth inhibition – luminescence, BacTiterGlo, counter-screen for streptokinase expression inhibitor project, dose response (AID 1915); type: functional, organism-based;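 also: potency for reduction of bacterial viability or growth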
Jurkat = assay: blockers of NF-kB activation in T cells – Jurkat, luciferase reporter, luminescence, B- and T-cell, dose response (AID 489004); type: functional, cell-based; conditions: Homo sapiens;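 also: NF-kB luciferase reporter Jurkat cells stimulated with PMA plus ionomycin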
[19] = HEK-293T viability loss, compound-treated – cell-based, uHTS hits, cytotoxicity control for B/T-cell NF-kB inhibitor project, dose response (AID 489019); type: functional;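 also: IC50 reflects cytotoxicity as loss of cell viability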
Nonstructural protein 1 = Nonstructural protein 1 (Influenza A virus, UniProt Q194T2); type: functional, Influenza A virus (A/California/07/2009(H1N1))
[20] = molecular target: T3, Long-chain-fatty-acid--AMP ligase FadD28 (Mycobacterium tuberculosis, UniProt P9WQ59); assay: Fluorescence polarization aasay to screen for inhibitors that compete for the binding of FadD28 to a bisubstrate Measured in Biochemical System Using Plate Reader - 2147-01_Inhibitor_Dose_CherryPick_Activity.; type: functional, Mycobacterium tuberculosis H37Rv
T3 sequence (P9WQ59 whole entry): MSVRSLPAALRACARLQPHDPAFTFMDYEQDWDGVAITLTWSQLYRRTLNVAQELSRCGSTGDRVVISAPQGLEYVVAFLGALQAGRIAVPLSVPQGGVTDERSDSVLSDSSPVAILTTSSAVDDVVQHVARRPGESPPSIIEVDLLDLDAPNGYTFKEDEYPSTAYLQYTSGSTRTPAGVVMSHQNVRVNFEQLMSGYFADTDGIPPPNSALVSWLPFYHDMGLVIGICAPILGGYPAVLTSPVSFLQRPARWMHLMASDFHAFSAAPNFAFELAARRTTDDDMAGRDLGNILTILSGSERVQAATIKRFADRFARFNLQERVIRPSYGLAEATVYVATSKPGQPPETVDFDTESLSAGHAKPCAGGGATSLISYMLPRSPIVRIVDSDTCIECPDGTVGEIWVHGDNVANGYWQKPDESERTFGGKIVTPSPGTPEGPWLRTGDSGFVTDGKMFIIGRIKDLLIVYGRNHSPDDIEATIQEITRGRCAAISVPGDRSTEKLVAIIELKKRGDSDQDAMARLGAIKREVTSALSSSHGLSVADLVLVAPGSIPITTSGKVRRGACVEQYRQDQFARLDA

cells [21] = assay: cells
[22] = A cytotoxicity screen of small molecule inhibitors of the PhoP region in Salmonella typhi identified in the primary screen. [Related pubchem assays: 1850, 1864, 1985 ]; type: functional
[23] = luciferase reporter signal reduction – luminescence, H4-C neuroglioblastoma cells, dose response (AID 2458); type: functional, cell-based;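 also: H4 neuroglioblastoma cells stably carrying a luciferase reporter gene fusion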
cells [24] = type: functional, cell-based
[25] = alpha-synuclein stem-loop translation blockers – luminescence, H4 neuroglioblastoma cells, dose confirmation, confirmation (AID 2454); type: functional, cell-based;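 also: H4 neuroglioblastoma cells carrying an alpha-synuclein 5'UTR luciferase reporter; potency for inhibition of the luciferase signal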
P388/ADR = assay: cells; type: functional; conditions: Mus musculus
SN12K1 = assay: cells; type: functional; conditions: Homo sapiens
P388 = assay: cells; type: functional; conditions: Mus musculus
[26] = A Cell Based Secondary Assay To Explore Cytotoxicity of Compounds that Sensitize Mycobacterium Tuberculosis to Beta-Lactam Antibiotics.; type: functional
[27] = molecular target: T4, Microphthalmia-associated transcription factor (Homo sapiens, UniProt O75030); assay: reducers of TRPM1 reporter luminescence, concentration series – cell-based, SK-MEL-5, cherry-picked, set 3, MITF inhibitor project, dose response (AID 493073); type: functional;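 also: SK-MEL-5 melanoma cells with luciferase driven by the MITF target TRPM1 promoter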
T4 sequence (O75030 whole entry): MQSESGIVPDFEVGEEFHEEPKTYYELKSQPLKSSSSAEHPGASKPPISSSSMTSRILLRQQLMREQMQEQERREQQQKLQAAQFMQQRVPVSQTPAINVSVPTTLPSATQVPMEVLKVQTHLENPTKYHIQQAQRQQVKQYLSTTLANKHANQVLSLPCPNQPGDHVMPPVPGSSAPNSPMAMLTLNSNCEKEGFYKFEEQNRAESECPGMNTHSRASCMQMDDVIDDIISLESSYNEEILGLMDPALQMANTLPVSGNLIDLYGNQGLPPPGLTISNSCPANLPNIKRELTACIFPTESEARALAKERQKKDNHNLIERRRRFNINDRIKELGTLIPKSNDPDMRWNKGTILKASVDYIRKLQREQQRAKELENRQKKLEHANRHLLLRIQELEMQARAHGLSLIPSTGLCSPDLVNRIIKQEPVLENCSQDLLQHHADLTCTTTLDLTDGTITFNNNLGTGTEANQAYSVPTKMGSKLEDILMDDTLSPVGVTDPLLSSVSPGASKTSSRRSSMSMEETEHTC

Cytochrome P450 3A4 = Cytochrome P450 3A4 (Homo sapiens, UniProt P08684);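 also: CYP3A4 tested as one member of a cytochrome P450 panel screen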
Cytochrome P450 2C9 = Cytochrome P450 2C9 (Homo sapiens, UniProt P11712)

Chain of Luciferin 4-monooxygenase (P08659 whole entry): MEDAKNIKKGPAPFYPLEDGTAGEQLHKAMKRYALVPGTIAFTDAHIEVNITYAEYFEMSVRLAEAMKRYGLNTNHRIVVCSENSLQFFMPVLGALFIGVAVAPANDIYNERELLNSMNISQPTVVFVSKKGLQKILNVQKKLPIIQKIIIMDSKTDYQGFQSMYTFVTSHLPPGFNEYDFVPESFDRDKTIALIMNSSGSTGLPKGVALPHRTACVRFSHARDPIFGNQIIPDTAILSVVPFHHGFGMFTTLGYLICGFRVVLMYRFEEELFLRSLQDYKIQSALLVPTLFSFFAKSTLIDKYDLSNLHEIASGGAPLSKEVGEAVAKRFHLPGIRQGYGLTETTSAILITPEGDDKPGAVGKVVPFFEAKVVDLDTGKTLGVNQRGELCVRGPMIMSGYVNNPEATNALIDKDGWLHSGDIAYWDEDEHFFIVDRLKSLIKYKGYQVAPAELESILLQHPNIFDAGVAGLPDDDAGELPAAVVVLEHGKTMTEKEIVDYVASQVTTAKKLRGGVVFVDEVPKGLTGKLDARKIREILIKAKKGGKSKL
Chain of Nonstructural protein 1 (Q194T2 whole entry): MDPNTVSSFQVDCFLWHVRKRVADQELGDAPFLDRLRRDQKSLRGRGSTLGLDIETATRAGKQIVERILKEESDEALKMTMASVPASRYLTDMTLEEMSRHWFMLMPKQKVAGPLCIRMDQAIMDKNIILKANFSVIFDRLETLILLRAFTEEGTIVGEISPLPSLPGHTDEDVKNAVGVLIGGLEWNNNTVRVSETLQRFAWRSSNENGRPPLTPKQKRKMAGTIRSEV
Chain of Peroxisome proliferator-activated receptor gamma/Nuclear receptor coactivator 2 (P37231 whole entry): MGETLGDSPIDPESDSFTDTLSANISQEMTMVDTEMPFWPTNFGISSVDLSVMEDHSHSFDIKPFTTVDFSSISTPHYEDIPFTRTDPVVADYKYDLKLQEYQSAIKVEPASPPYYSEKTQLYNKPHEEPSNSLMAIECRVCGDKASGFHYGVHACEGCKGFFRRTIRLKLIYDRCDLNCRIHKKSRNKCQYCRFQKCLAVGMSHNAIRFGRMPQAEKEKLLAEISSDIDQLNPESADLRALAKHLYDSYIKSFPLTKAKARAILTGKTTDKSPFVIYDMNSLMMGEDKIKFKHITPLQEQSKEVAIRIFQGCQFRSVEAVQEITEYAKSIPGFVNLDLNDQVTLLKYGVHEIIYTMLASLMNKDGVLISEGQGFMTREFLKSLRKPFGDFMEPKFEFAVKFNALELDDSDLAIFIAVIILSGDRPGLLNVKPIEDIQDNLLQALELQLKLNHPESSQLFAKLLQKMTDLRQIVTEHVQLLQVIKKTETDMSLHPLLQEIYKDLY
Chain of Peroxisome proliferator-activated receptor gamma/Nuclear receptor coactivator 2 (Q15596 whole entry, further chain): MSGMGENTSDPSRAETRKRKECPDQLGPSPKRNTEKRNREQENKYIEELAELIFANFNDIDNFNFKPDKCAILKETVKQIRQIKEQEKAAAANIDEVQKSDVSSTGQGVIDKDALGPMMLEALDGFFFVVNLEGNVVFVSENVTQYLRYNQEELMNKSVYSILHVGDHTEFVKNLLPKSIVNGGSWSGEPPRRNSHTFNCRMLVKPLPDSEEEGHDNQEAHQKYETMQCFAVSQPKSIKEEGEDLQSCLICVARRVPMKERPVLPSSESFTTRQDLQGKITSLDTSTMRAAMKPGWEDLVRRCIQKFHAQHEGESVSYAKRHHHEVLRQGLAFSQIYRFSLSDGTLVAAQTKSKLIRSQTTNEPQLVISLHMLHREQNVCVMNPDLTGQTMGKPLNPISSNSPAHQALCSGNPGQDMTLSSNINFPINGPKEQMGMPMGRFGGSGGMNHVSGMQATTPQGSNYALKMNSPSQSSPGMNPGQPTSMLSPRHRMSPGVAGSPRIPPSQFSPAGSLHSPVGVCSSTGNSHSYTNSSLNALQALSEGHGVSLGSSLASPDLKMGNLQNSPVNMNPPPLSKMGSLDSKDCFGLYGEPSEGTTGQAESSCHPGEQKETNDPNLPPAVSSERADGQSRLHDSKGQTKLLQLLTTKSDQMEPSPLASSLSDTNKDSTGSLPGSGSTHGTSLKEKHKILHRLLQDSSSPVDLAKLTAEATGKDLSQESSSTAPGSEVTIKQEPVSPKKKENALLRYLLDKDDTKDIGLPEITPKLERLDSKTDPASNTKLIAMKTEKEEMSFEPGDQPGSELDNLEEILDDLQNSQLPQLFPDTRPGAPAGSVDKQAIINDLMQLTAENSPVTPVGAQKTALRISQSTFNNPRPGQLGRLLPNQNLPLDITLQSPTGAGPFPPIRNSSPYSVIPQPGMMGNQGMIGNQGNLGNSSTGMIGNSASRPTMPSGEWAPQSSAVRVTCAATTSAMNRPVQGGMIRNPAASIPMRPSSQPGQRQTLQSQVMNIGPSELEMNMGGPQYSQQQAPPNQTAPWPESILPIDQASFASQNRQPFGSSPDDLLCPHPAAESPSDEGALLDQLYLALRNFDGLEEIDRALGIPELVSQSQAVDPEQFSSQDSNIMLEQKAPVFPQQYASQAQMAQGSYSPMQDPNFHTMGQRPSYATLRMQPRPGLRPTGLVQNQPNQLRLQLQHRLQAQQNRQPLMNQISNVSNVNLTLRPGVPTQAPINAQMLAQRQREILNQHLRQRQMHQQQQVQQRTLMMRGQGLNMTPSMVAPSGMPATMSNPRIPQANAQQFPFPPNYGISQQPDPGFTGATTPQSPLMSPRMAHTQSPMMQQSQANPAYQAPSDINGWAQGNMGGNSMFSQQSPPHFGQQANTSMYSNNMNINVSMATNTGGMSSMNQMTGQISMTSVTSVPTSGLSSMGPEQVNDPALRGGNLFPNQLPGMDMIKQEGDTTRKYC
Chain of Peroxisome proliferator-activated receptor gamma/Nuclear receptor coactivator 1 (P37231 whole entry): as the sequence (P37231 whole entry) above
Chain of Peroxisome proliferator-activated receptor gamma/Nuclear receptor coactivator 1 (Q15788 whole entry, further chain): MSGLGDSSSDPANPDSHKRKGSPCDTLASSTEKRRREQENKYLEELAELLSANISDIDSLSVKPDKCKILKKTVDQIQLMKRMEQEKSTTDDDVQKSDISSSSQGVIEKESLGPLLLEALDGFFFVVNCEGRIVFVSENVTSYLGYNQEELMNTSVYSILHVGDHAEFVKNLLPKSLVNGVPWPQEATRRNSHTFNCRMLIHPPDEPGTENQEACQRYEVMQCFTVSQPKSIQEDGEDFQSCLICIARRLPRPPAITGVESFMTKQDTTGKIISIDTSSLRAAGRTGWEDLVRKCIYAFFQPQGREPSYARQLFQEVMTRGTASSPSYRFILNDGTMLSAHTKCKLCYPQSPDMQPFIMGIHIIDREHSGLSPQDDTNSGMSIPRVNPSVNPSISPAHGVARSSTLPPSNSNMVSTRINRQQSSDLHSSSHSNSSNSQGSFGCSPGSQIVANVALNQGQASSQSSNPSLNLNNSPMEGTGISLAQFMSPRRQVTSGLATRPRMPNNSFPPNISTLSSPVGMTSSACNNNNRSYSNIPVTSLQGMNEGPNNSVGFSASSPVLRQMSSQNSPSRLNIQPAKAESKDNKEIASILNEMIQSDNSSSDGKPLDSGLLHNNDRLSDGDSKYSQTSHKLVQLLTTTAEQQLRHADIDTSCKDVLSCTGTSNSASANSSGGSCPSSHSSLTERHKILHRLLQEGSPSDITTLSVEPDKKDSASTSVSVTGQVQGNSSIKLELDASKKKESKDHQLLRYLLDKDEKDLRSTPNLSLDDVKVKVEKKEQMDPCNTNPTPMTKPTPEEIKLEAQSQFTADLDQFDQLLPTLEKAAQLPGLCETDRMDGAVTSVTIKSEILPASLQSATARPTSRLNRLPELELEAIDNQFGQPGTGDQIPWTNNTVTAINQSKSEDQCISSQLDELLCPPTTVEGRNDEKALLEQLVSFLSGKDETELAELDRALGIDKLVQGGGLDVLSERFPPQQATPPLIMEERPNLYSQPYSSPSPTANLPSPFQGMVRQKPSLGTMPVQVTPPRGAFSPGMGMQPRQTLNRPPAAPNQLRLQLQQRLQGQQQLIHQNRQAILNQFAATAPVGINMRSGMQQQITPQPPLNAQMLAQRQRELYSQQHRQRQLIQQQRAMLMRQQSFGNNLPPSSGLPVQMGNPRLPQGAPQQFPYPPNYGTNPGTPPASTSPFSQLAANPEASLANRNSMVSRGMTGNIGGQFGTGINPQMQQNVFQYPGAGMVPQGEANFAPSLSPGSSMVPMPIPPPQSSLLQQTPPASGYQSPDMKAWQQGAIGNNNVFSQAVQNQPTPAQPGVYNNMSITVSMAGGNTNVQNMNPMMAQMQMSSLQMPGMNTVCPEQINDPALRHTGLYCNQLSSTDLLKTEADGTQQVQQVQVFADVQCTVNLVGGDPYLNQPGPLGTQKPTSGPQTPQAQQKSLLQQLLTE
Chain of Glyceraldehyde-3-phosphate dehydrogenase (P04406 whole entry): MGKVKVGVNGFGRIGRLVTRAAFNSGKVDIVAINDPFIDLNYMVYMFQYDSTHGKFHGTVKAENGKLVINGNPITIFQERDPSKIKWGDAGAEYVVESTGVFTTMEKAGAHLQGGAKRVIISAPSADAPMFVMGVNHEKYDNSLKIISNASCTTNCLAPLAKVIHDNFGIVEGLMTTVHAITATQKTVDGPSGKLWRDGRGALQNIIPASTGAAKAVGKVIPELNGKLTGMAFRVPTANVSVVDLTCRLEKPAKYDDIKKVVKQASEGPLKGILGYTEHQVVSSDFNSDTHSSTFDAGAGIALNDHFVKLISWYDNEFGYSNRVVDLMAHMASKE

CC(C)[C@H](Nc1nc(-c2ccccc2)nc2c1oc1ccccc12)C(=O)O
IC50 (Leucine aminopeptidase): 25.2 µM (active)

CCOc1ccc(-c2cc(CCCC(=O)Nc3cc(OC)ccc3OC)no2)cc1
EC50 [1]: 13 µM (active) | EC50 [2]: 18.8 µM (active) | IC50 [3]: > 100 µM (not active) | EC50 [4]: 26.9 µM (active) | EC50 [5]: 11.9 µM (active) | EC50 (HT-1080): > 50 µM (not active) | AC50 (Cytochrome P450 2C19): 3.16 µM (inconclusive)

COc1ccc(/C(C)=C2/SC(=S)N(CCC(=O)O)C2=O)cc1
IC50 (Leucine aminopeptidase): 27.4 µM (active)

C=CCNC(=O)c1ccc(-c2nc(-c3ccc(Cl)cc3Cl)cs2)cc1
EC50 [6]: 10.2 µM (not active) | EC50 [7]: 17.1 µM (not active) | EC50 [8]: 10.9 µM (not active)

C[n+]1c(-c2ccccc2)c2cc(N)ccc2c2ccc(N)cc21
EC50 [9]: > 160 µM (inconclusive) | EC50 [1]: > 120 µM (not active) | EC50 [10]: 1.29 µM (active) | EC50 (BJ [11]): 3.61 µM (active) | EC50 [4]: 20.1 µM (active) | EC50 [5]: 9.48 µM (active) | EC50 (Streptokinase A): > 150 µM (not active) | EC50 (BJ [12]): 6.25 µM (active) | EC50 [13]: 0.121 µM (active) | EC50 [14]: < 0.1 µM (active) | CC50 [15]: > 40 µM (active) | EC50 [16]: 12.3 µM (active) | EC50 (BJ [17]): 10.5 µM (active) | EC50 [18]: 7.32 µM (active) | EC50 (Streptococcus): 5.67 µM (active) | IC50 (Jurkat): > 80 µM (inactive) | IC50 [19]: > 80 µM (inactive) | IC50 (Nonstructural protein 1): 30.5 µM (active) | AC50 [20]: > 100 µM (inactive) | EC50 (cells [21]): 0.011 µM (active)

COc1ccc(-c2nc3cc(NC(=O)Cc4ccc(OC)c(OC)c4)ccc3o2)cc1
EC50 [22]: > 50 µM (active)

COC(=O)Cc1ccc(NC(=O)c2ccc(C(C)(C)C)cc2)cc1
EC50 [1]: < 0.1 µM (active) | EC50 [23]: 0.067 µM (active) | EC50 [2]: 1.8 µM (active) | EC50 (cells [24]): 0.263 µM (active) | EC50 [4]: < 0.1 µM (active) | EC50 [5]: < 0.1 µM (active) | EC50 (HT-1080): > 50 µM (not active) | EC50 [25]: 0.161 µM (active) | IC50 (Jurkat): 0.19 µM (active) | IC50 [19]: 78.9 µM (inactive)

O=C1NC(=S)NC(=O)C1=C(O)Nc1ccccc1
EC50 [22]: > 50 µM (active) | GI50 (P388/ADR): 25.2 µM (inactive) | GI50 (SN12K1): 15 µM (inactive) | GI50 (P388): 16.7 µM (inactive)

O=C1C2ON(c3ccc(Br)cc3)C(c3cccnc3)C2C(=O)N1C1CCCCC1 (stereo unspecified)
CC50 [26]: 37.9 µM (active)

CCOC(=O)/C(=N\Nc1ccccc1)c1csc(Nc2ccc(C)cc2)n1
CC50 [26]: 31.3 µM (active) | EC50 [14]: 2.13 µM (active) | EC50 [16]: > 30 µM (not active)

O=C(N/N=C/c1ccc([N+](=O)[O-])s1)c1ccccc1Br
EC50 [2]: 0.24 µM (active) | EC50 (HT-1080): > 50 µM (not active) | AC50 [27]: 3.65 µM (active) | AC50 (Cytochrome P450 3A4): 22.4 µM (inconclusive) | AC50 (Cytochrome P450 2C9): 39.8 µM (inconclusive)
